Experimental data published in paper PMC7111628 (Antiviral Research, 2020).
Read-outs that look alike come from different tables or passages of the source.

Legend:
[1] = MTT cytotoxicity assay in HeLa cells; assay type: cell-based; details: human, CC50, HeLa cells, MTT assay, concentration required to reduce cell viability by 50%
HSV-2 (333 strain) [2] = test: CPE inhibition assay, HSV-2; details: for IC50: read-out: HSV-2 IC50
HSV-1 (F strain) [3] = test: CPE inhibition assay, HSV-1; details: for IC50: read-out: HSV-1 IC50
HSV-1 (F strain) [4] = test: Murine intranasal model of HSV pneumonia and encephalitis; assay type: in vivo, BALB/c mice; details: for survival by day 14 post infection: placebo 20%
[5] = MTT cytotoxicity assay in Hep-2 cells; assay type: cell-based; details: human, CC50, Hep-2 cells, MTT assay, concentration required to reduce cell viability by 50%
Vero cells = test: MTT cytotoxicity assay in Vero cells; assay type: cell-based; details: 50 to 400 μM, 24 h incubation
[6] = system: HIV reverse transcriptase; details: ref Pasetto et al., 2014; cited from earlier work
phosphorylated EGFR = test: Western blot of phosphorylated EGFR in HSV-2 infected cells; assay type: cell-based; details: HSV-2 (MOI = 1.0) infected cells, virus control about 2.4
HSV-1 (F strain) [7] = test: Indirect immunofluorescence assay of ICP27 in HSV-1 infected Vero cells; details: pretreatment of virus with 10 μM before infection
HSV-1 [8] = test: Time-of-addition assay, HSV-1; details: Vero cells, 24 h p.i.
[9] = system: SARS-CoV helicase protein; details: cited from earlier work
HSV-1 gD mRNA = test: Real-time RT-PCR of gD mRNA, HSV-1 infected Vero cells; assay type: cell-based, Herpes simplex virus type 1; details: 5, 10, 20 μM; HSV-1 (MOI = 1.0) infected Vero cells, 8 h; p < 0.05
HeLa cells = test: MTT cytotoxicity assay in HeLa cells; assay type: cell-based; details: 50 to 400 μM, MTT, 24 h incubation
HSV-1 (F strain) [10] = test: Virus yield in culture media by plaque assay, HSV-1; assay type: cell-based, Herpes simplex virus type 1; details: Vero cells; concentration >1.25 μM; 24 h p.i.; p < 0.05
HSV-1 [11] = details: Vero cells; ref Lyu et al., 2005; cited from earlier work
phosphorylated Akt = test: Western blot of phosphorylated Akt in HSV-2 infected cells; assay type: cell-based; details: HSV-2 (MOI = 1.0) infected cells, virus control about 12.1
HSV-2 [12] = test: Cell fusion inhibition assay; assay type: cell-based, Herpes simplex virus type 2; details: 30, 15 μM during 5-7 h p.i.; HSV-2 (MOI = 3.0) infected Vero cells
HSV-2 [13] = test: Time-of-addition assay, HSV-2; details: Vero cells, 24 h p.i.
HSV-2 [14] = test: Plaque reduction assay, HSV-2; assay type: cell-based, Herpes simplex virus type 2; details: pretreatment of HSV with 1.25-20 μM; Vero cells
[15] = system: EGFR, PI3K and Akt proteins; test: Western blot of total EGFR, PI3K and Akt in HSV-2 infected Vero cells; assay type: cell-based; details: 2.5, 5, 10, 20 μM for 2 h
HVEM and nectin-1 = test: DARTS assay, cellular surface receptors of HSV-1; assay type: binding; details: 60 μM; HSV-1 infected Vero cell lysates
gD protein = test: Western blot of virus gD expression during 5-7 h p.i.; assay type: cell-based, Herpes simplex virus type 2; details: treatment during 5-7 h p.i.
HSV-1 gD protein [16] = target: T1, HSV-1 gD protein (Human herpesvirus 1, UniProt Q69091); test: DARTS assay, gD; assay type: binding, Herpes simplex virus type 1; details: 60 μM; pronase 3 μg/ml; HSV-1 infected Vero cell lysates
Hep-2 cells = test: MTT cytotoxicity assay in Hep-2 cells; assay type: cell-based; details: 50 to 400 μM, MTT, 24 h incubation
HSV-2 (333 strain) [17] = test: Virus yield in culture media by plaque assay, HSV-2; assay type: cell-based, Herpes simplex virus type 2; details: Vero cells; concentration >1.25 μM; 24 h p.i.; p < 0.05
HSV-1 gD protein [18] = target: T1, HSV-1 gD protein; test: HSV-1 gD binding to Vero cells, cell ELISA; assay type: cell-based, Herpes simplex virus type 1
HSV-1 [19] = test: Plaque reduction assay, HSV-1; assay type: cell-based, Herpes simplex virus type 1; details: pretreatment of HSV with 1.25-20 μM; Vero cells
HSV-1 gD protein [20] = target: T1, HSV-1 gD protein; test: Surface plasmon resonance; assay type: binding, Herpes simplex virus type 1
[21] = system: gB, gC, and gH/gL proteins; test: DARTS assay, other virus surface glycoproteins; assay type: binding, Herpes simplex virus type 1; details: 60 μM; HSV-1 infected Vero cell lysates
EGFR/PI3K/Akt pathway [22] = assay type: cell-based; details: 5, 10, 20 μM; Vero cells treated with HSV-1 gD protein (2 μg/ml); vs gD treated control, p < 0.05
EGFR/PI3K/Akt pathway [23] = test: Western blot of phosphorylated EGFR, PI3K and Akt in non-infected Vero cells; assay type: cell-based; details: 2.5, 5, 10, 20 μM for 2 h
HSV-2 gD mRNA = test: Real-time RT-PCR of gD mRNA, HSV-2 infected Vero cells; assay type: cell-based, Herpes simplex virus type 2; details: 5, 10, 20 μM; HSV-2 (MOI = 1.0) infected Vero cells, 8 h; p < 0.05
phosphorylated PI3K = test: Western blot of phosphorylated PI3K in HSV-2 infected cells; assay type: cell-based; details: HSV-2 (MOI = 1.0) infected cells, virus control about 1.9
[24] = 10 mg·kg-1 intraperitoneal, day 4 p.i.
[25] = 20 μM for 1 h before infection, p < 0.01

T1 sequence (Q69091 26-394): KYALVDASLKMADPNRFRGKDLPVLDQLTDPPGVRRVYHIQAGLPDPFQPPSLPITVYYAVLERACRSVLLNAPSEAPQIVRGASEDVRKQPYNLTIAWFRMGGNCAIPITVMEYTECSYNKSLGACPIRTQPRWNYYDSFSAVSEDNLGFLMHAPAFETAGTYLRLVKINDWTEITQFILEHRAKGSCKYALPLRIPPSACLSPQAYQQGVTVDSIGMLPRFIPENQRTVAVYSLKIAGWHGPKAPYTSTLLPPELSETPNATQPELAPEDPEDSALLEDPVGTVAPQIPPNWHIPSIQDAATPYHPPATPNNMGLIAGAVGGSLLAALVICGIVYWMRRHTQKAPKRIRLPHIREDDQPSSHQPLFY

Compound: Nc1nc2c(ncn2COCCO)c(=O)[nH]1 [Acyclovir]
- CC50 at 24 h [1]: 830 ± 40 µM
- HSV-2 SI (CC50/IC50) (HSV-2 (333 strain) [2]; HeLa cells): 37.9
- HSV-2 SI (CC50/IC50) (HSV-2 (333 strain) [2]; Hep-2 cells): 31.5
- IC50 (HSV-2 (333 strain) [2]; Human alphaherpesvirus 2, HEp-2, 24 h): 28.5 ± 4.3 µM
- IC50 (HSV-2 (333 strain) [2]; Human alphaherpesvirus 2, HeLa, 24 h): 21.9 ± 3.2 µM
- IC50 (HSV-2 (333 strain) [2]; Human alphaherpesvirus 2, Vero, 24 h): 11.6 ± 2.5 µM
- HSV-2 SI (CC50/IC50) (HSV-2 (333 strain) [2]; Vero cells): 84.1
- HSV-1 SI (CC50/IC50) (HSV-1 (F strain) [3]; HeLa cells): 75.5
- HSV-1 SI (CC50/IC50) (HSV-1 (F strain) [3]; Hep-2 cells): 46.5
- IC50 (HSV-1 (F strain) [3]; Human alphaherpesvirus 1, HEp-2, 24 h): 19.3 ± 2.2 µM
- IC50 (HSV-1 (F strain) [3]; Human alphaherpesvirus 1, HeLa, 24 h): 11 ± 1.2 µM
- IC50 (HSV-1 (F strain) [3]; Human alphaherpesvirus 1, Vero, 24 h): 7.4 ± 0.6 µM
- HSV-1 SI (CC50/IC50) (HSV-1 (F strain) [3]; Vero cells): 131.8
- survival by day 14 post infection (HSV-1 (F strain) [4]; 10 mg·kg-1 intraperitoneal once daily for five days): 90%
- virus titers in lungs (HSV-1 (F strain) [4]; [24]): significant reduction of virus titers
- virus titers in spinal cord (HSV-1 (F strain) [4]; [24]): significant reduction of virus titers
- CC50 at 24 h [5]: 898 ± 72.6 µM

Compound: O=c1c(O)c(-c2cc(O)c(O)c(O)c2)oc2cc(O)cc(O)c12 [Myricetin, 3,5,7-trihydroxy-2-(3,4,5-trihydroxyphenyl)-4-benzopyrone]
- cytotoxicity (Vero cells): no significant cytotoxicity
- activity of HIV reverse transcriptase [6]: inhibited the activity of HIV reverse transcriptase
- level of phosphorylated EGFR (phosphorylated EGFR; 10 μM for 2 h): about 1.4 fold of normal control group
- level of phosphorylated EGFR (phosphorylated EGFR; 20 μM for 2 h): ~0.8 fold of normal control group
- expression of ICP27 (HSV-1 (F strain) [7]): significantly reduced the expression of ICP27
- virus titers, pretreatment of virus (HSV-1 [8]; [25]): significantly reduced the virus titers
- virus titers, pretreatment of cells (HSV-1 [8]; 20 μM): did not significantly reduce virus titers
- virus multiplication, treatment after adsorption (HSV-1 [8]; 20 μM, p < 0.05): obvious inhibition on virus multiplication
- inhibition of SARS-CoV helicase protein [9]: potently inhibited
- expression level of gD mRNA (HSV-1 gD mRNA): significantly reduced the expression level of gD mRNA
- CC50 at 24 h [1]: ~1150 µM
- cytotoxicity (HeLa cells): no significant cytotoxicity
- virus titers in culture media (HSV-1 (F strain) [10]): significantly reduced the virus titers
- inhibitory effects against HSV-1 (HSV-1 [11]): moderate inhibitory effects
- activation of Akt (p-Akt) (phosphorylated Akt; 5 μM for 2 h): about 3.9 fold of normal control group
- activation of Akt (p-Akt) (phosphorylated Akt; 10 μM for 2 h): ~2.5 fold of normal control group
- activation of Akt (p-Akt) (phosphorylated Akt; 20 μM for 2 h): ~1.2 fold of normal control group
- syncytium formation (HSV-2 [12]): markedly blocked syncytium formation
- virus titers, pretreatment of virus (HSV-2 [13]; [25]): significantly reduced the virus titers
- virus titers, pretreatment of cells (HSV-2 [13]; 20 μM): did not significantly reduce virus titers
- virus multiplication, treatment after adsorption (HSV-2 [13]; 20 μM, p < 0.05): obvious inhibition on virus multiplication
- number of plaques (HSV-2 [14]): significantly reduced the number of plaques
- total expression levels of EGFR, PI3K and Akt proteins [15]: did not significantly influence the total expression levels
- brain histopathology (HE staining) (HSV-1 (F strain) [4]; 2.5 mg·kg-1, day 4 p.i., comparable to acyclovir (10 mg·kg-1)): only had tiny hyperaemia
- brain histopathology (HE staining) (HSV-1 (F strain) [4]; 5 mg·kg-1, day 4 p.i.): nearly had no hyperaemia and infiltration of inflammatory cells
- lung histopathology (HE staining) (HSV-1 (F strain) [4]; 2.5 or 5 mg·kg-1, day 4 p.i.): intact columnar epithelium
- survival by day 14 post infection (HSV-1 (F strain) [4]; 2.5 or 5 mg·kg-1 intraperitoneal once daily for five days): 100%
- body weight loss during the infection (HSV-1 (F strain) [4]; 2.5 or 5 mg·kg-1 intraperitoneal once daily for five days, placebo up to 19%): less than 5%
- survival rates compared to placebo-treated control group (HSV-1 (F strain) [4]; 2.5 or 5 mg·kg-1 intraperitoneal, p < 0.01): significantly increased survival rates
- pulmonary virus titers (HSV-1 (F strain) [4]; myricetin 2.5 or 5 mg·kg-1 intraperitoneal, day 4 p.i., plaque assay, p < 0.05): significantly decreased
- protection of HVEM and nectin-1 from protease digestion (HVEM and nectin-1): could also not be protected
- expression of virus surface glycoproteins such as gD protein (gD protein): did not obviously influence the expression
- protection of gD protein from protease digestion (HSV-1 gD protein [16]): obviously protected
- CC50 at 24 h [5]: ~965 µM
- cytotoxicity (Hep-2 cells): no significant cytotoxicity
- virus titers in culture media (HSV-2 (333 strain) [17]): significantly reduced the virus titers
- binding of gD to cell surface, pre-incubation of gD protein (HSV-1 gD protein [18]; 5, 10, 20, 40 μM, gD protein 2 μg/mL, dose-dependent): significantly reduced the binding of gD to cell surface
- amount of gD protein on cell surface, pretreatment of cells (HSV-1 gD protein [18]; 40, 20, 10, 5 μM for 1 h): did not significantly decrease the amount of gD protein on cell surface
- number of plaques (HSV-1 [19]): significantly reduced the number of plaques
- Kd (HSV-1 gD protein [20]): ~0.0609 µM
- protection of gB, gC, and gH/gL proteins from protease digestion [21]: could not protect
- levels of phosphorylated EGFR, PI3K, and Akt proteins (EGFR/PI3K/Akt pathway [22]): significantly reduced
- activation of EGFR, PI3K and Akt proteins (EGFR/PI3K/Akt pathway [23]): could not significantly influence the activation
- expression level of gD mRNA (HSV-2 gD mRNA): significantly reduced the expression level of gD mRNA
- level of phosphorylated PI3K (phosphorylated PI3K; 5 μM for 2 h): about 1.4 fold of normal control group
- level of phosphorylated PI3K (phosphorylated PI3K; 10 μM for 2 h): about 1.4 fold of normal control group
- level of phosphorylated PI3K (phosphorylated PI3K; 20 μM for 2 h): ~0.8 fold of normal control group

Compound: O=c1c(O)c(-c2ccc(O)c(O)c2)oc2cc(O)cc(O)c12 [quercetinin, reference compound]
- inhibitory effects against HSV-1 (HSV-1 [11]): moderate inhibitory effects

Compound: O=c1cc(-c2ccc(O)cc2)oc2cc(O)c(O)c(O)c12 [scutellarein, reference compound]
- inhibition of SARS-CoV helicase protein [9]: potently inhibited
